# Experimental data reported in the supplement of paper PMC10307832.
# Columns and labels:
# Assay in all cases: relative viability (nuclei count vs DMSO), 5 days (fraction); higher = more cells survive
# VE-821 + Linsitinib = compound: CS(=O)(=O)c1ccc(-c2cnc(N)c(C(=O)Nc3ccccc3)n2)cc1 [VE-821] + C[C@]1(O)C[C@@H](c2nc(-c3ccc4ccc(-c5ccccc5)nc4c3)c3c(N)nccn32)C1 [Linsitinib] (partner 1 µM)
# How it was run: (§1)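 One day after seeding in 1536-well plates, lung cancer cell lines were dosed by pin tool. Dosing was either single-drug or a fixed anchor-drug dose plus five library-drug doses (not always all listed) in √10 steps. After 5 days, nuclei were stained in one fix-and-stain step and counted on 4× images, and relative viability is the nuclei count of treated wells over that of vehicle wells, given as the median of duplicate plates.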
# VE-821 + Foretinib = compound: CS(=O)(=O)c1ccc(-c2cnc(N)c(C(=O)Nc3ccccc3)n2)cc1 [VE-821] + COc1cc2c(Oc3ccc(NC(=O)C4(C(=O)Nc5ccc(F)cc5)CC4)cc3F)ccnc2cc1OCCCN1CCOCC1 [Foretinib] (partner 0.25 µM)
# How it was run: as §1
# Vismodegib + Vorinostat = compound: CS(=O)(=O)c1ccc(C(=O)Nc2ccc(Cl)c(-c3ccccn3)c2)c(Cl)c1 [Vismodegib] + O=C(CCCCCCC(=O)Nc1ccccc1)NO [Vorinostat] (partner 1 µM)
# How it was run: as §1
# VE-821 + Alpelisib = compound: CS(=O)(=O)c1ccc(-c2cnc(N)c(C(=O)Nc3ccccc3)n2)cc1 [VE-821] + Cc1nc(NC(=O)N2CCC[C@H]2C(N)=O)sc1-c1ccnc(C(C)(C)C(F)(F)F)c1 [Alpelisib] (partner 2 µM)
# How it was run: as §1
cell line,measurement,setting,value
UMC-11,relative viability,VE-821 + Linsitinib; first compound 0.08 µM,1.14
same,relative viability,VE-821 + Linsitinib; first compound 0.253 µM,1.03
same,relative viability,VE-821 + Linsitinib; first compound 0.8 µM,1.06
same,relative viability,VE-821 + Linsitinib; first compound 2.53 µM,1.04
same,relative viability,VE-821 + Linsitinib; first compound 8 µM,0.533
same,relative viability,VE-821 + Foretinib; first compound 0.08 µM,1.09
same,relative viability,VE-821 + Foretinib; first compound 0.253 µM,1.01
same,relative viability,VE-821 + Foretinib; first compound 0.8 µM,1.08
same,relative viability,VE-821 + Foretinib; first compound 2.53 µM,1.06
same,relative viability,VE-821 + Foretinib; first compound 8 µM,0.553
same,relative viability,Vismodegib + Vorinostat; first compound 0.08 µM,0.392
same,relative viability,Vismodegib + Vorinostat; first compound 0.253 µM,0.373
same,relative viability,Vismodegib + Vorinostat; first compound 0.8 µM,0.415
same,relative viability,Vismodegib + Vorinostat; first compound 2.53 µM,0.35
same,relative viability,Vismodegib + Vorinostat; first compound 8 µM,0.462
same,relative viability,VE-821 + Alpelisib; first compound 0.08 µM,1.23
same,relative viability,VE-821 + Alpelisib; first compound 0.253 µM,0.946
same,relative viability,VE-821 + Alpelisib; first compound 0.8 µM,1.03
same,relative viability,VE-821 + Alpelisib; first compound 2.53 µM,0.935
same,relative viability,VE-821 + Alpelisib; first compound 8 µM,0.437
